Reference: the NIST ThermoML archive (doi:10.1021/je600573w)

Experiments:
[1] = 101.33 kPa, Liquid, Vibrating tube method
[2] = molar heat capacity at constant pressure; settings: 101.33 kPa, Liquid, Small sample (50 mg) DSC

Brc1cccc(Br)c1 [1,3-dibromobenzene]
Settings	mass density [kg/m3]	molar heat capacity at constant pressure [J/K/mol]
[1], 288.15 K	1964.14	–
[1], 298.15 K	1948.87	–
[1], 308.15 K	1933.61	–
[1], 318.15 K	1918.3	–
[1], 328.15 K	1903.13	–
[1], 338.15 K	1887.88	–
[2], 283.15 K	–	176.01
[2], 285.15 K	–	176.4
[2], 287.15 K	–	176.71
[2], 289.15 K	–	177.04
[2], 291.15 K	–	177.38
[2], 293.15 K	–	177.72
[2], 295.15 K	–	178.08
[2], 297.15 K	–	178.44
[2], 299.15 K	–	178.81
[2], 301.15 K	–	179.19
[2], 303.15 K	–	179.58
[2], 305.15 K	–	179.97
[2], 307.15 K	–	180.37
[2], 309.15 K	–	180.78
[2], 311.15 K	–	181.19
[2], 313.15 K	–	181.6
[2], 315.15 K	–	182.01
[2], 317.15 K	–	182.43
[2], 319.15 K	–	182.85
[2], 321.15 K	–	183.28
[2], 323.15 K	–	183.7
[2], 325.15 K	–	184.13
[2], 327.15 K	–	184.55
[2], 329.15 K	–	184.98
[2], 331.15 K	–	185.4
[2], 333.15 K	–	185.83
[2], 335.15 K	–	186.25
[2], 337.15 K	–	186.67
[2], 339.15 K	–	187.08
[2], 341.15 K	–	187.49
[2], 343.15 K	–	187.9
[2], 345.15 K	–	188.3
[2], 347.15 K	–	188.7
[2], 349.15 K	–	189.09
[2], 351.15 K	–	189.47
[2], 353.15 K	–	189.85

Clc1ccccc1 [chlorobenzene]
Settings	mass density [kg/m3]	molar heat capacity at constant pressure [J/K/mol]
[1], 288.15 K	1111.9	–
[1], 298.15 K	1101.14	–
[1], 308.15 K	1090.34	–
[1], 318.15 K	1079.48	–
[1], 328.15 K	1068.57	–
[1], 338.15 K	1057.58	–
[2], 283.15 K	–	147.73
[2], 285.15 K	–	148.14
[2], 287.15 K	–	148.56
[2], 289.15 K	–	148.99
[2], 291.15 K	–	149.41
[2], 293.15 K	–	149.85
[2], 295.15 K	–	150.29
[2], 297.15 K	–	150.73
[2], 299.15 K	–	151.18
[2], 301.15 K	–	151.64
[2], 303.15 K	–	152.1
[2], 305.15 K	–	152.56
[2], 307.15 K	–	153.03
[2], 309.15 K	–	153.5
[2], 311.15 K	–	153.97
[2], 313.15 K	–	154.45
[2], 315.15 K	–	154.93
[2], 317.15 K	–	155.41
[2], 319.15 K	–	155.9
[2], 321.15 K	–	156.39
[2], 323.15 K	–	156.88
[2], 325.15 K	–	157.37
[2], 327.15 K	–	157.86
[2], 329.15 K	–	158.36
[2], 331.15 K	–	158.86
[2], 333.15 K	–	159.35
[2], 335.15 K	–	159.85
[2], 337.15 K	–	160.35
[2], 339.15 K	–	160.85
[2], 341.15 K	–	161.35
[2], 343.15 K	–	161.85
[2], 345.15 K	–	162.35
[2], 347.15 K	–	162.85
[2], 349.15 K	–	163.34
[2], 351.15 K	–	163.84
[2], 353.15 K	–	164.34

Clc1cccc(Cl)c1 [1,3-dichlorobenzene]
Settings	mass density [kg/m3]	molar heat capacity at constant pressure [J/K/mol]
[1], 288.15 K	1294.08	–
[1], 298.15 K	1282.79	–
[1], 308.15 K	1271.49	–
[1], 318.15 K	1260.17	–
[1], 328.15 K	1248.82	–
[1], 338.15 K	1237.42	–
[2], 283.15 K	–	167.15
[2], 285.15 K	–	167.54
[2], 287.15 K	–	167.93
[2], 289.15 K	–	168.32
[2], 291.15 K	–	168.72
[2], 293.15 K	–	169.13
[2], 295.15 K	–	169.55
[2], 297.15 K	–	169.97
[2], 299.15 K	–	170.39
[2], 301.15 K	–	170.82
[2], 303.15 K	–	171.25
[2], 305.15 K	–	171.69
[2], 307.15 K	–	172.14
[2], 309.15 K	–	172.58
[2], 311.15 K	–	173.04
[2], 313.15 K	–	173.49
[2], 315.15 K	–	173.95
[2], 317.15 K	–	174.41
[2], 319.15 K	–	174.88
[2], 321.15 K	–	175.35
[2], 323.15 K	–	175.83
[2], 325.15 K	–	176.3
[2], 327.15 K	–	176.78
[2], 329.15 K	–	177.26
[2], 331.15 K	–	177.75
[2], 333.15 K	–	178.24
[2], 335.15 K	–	178.73
[2], 337.15 K	–	179.22
[2], 339.15 K	–	179.71
[2], 341.15 K	–	180.2
[2], 343.15 K	–	180.7
[2], 345.15 K	–	181.2
[2], 347.15 K	–	181.7
[2], 349.15 K	–	182.2
[2], 351.15 K	–	182.7
[2], 353.15 K	–	183.2

Clc1cccc(Cl)c1Cl [1,2,3-trichlorobenzene]
[2]
Settings	molar heat capacity at constant pressure [J/K/mol]
327.15 K	201.44
329.15 K	201.8
331.15 K	202.16
333.15 K	202.52
335.15 K	202.88
337.15 K	203.25
339.15 K	203.62
341.15 K	204
343.15 K	204.38
345.15 K	204.75
347.15 K	205.14
349.15 K	205.52
351.15 K	205.91
353.15 K	206.3

Brc1ccccc1Br [1,2-dibromobenzene]
Settings	mass density [kg/m3]	molar heat capacity at constant pressure [J/K/mol]
[1], 288.15 K	1987.92	–
[1], 298.15 K	1972.75	–
[1], 308.15 K	1957.62	–
[1], 318.15 K	1942.51	–
[1], 328.15 K	1927.42	–
[1], 338.15 K	1912.34	–
[2], 283.15 K	–	177.44
[2], 285.15 K	–	177.83
[2], 287.15 K	–	178.12
[2], 289.15 K	–	178.43
[2], 291.15 K	–	178.75
[2], 293.15 K	–	179.08
[2], 295.15 K	–	179.42
[2], 297.15 K	–	179.76
[2], 299.15 K	–	180.12
[2], 301.15 K	–	180.48
[2], 303.15 K	–	180.85
[2], 305.15 K	–	181.22
[2], 307.15 K	–	181.6
[2], 309.15 K	–	181.99
[2], 311.15 K	–	182.38
[2], 313.15 K	–	182.77
[2], 315.15 K	–	183.17
[2], 317.15 K	–	183.57
[2], 319.15 K	–	183.97
[2], 321.15 K	–	184.38
[2], 323.15 K	–	184.79
[2], 325.15 K	–	185.19
[2], 327.15 K	–	185.6
[2], 329.15 K	–	186.01
[2], 331.15 K	–	186.42
[2], 333.15 K	–	186.82
[2], 335.15 K	–	187.23
[2], 337.15 K	–	187.63
[2], 339.15 K	–	188.03
[2], 341.15 K	–	188.42
[2], 343.15 K	–	188.82
[2], 345.15 K	–	189.2
[2], 347.15 K	–	189.58
[2], 349.15 K	–	189.96
[2], 351.15 K	–	190.33
[2], 353.15 K	–	190.69
